Measured values from PMC8305236, “New Broth Macrodilution Volatilization Method for Antibacterial Susceptibility Testing of Volatile Agents and Evaluation of Their Toxicity Using Modified MTT Assay In Vitro” (Molecules, 2021).
Values after ≈ are worked out from the molar mass of the structure shown. Each block holds one molecule with its values, some of them ahead of it.

Experiments:
Test in all cases: broth macrodilution volatilization method (liquid and vapor phase MIC)
Format in all cases: cell-based
[1] = tested on: Streptococcus pneumoniae ATCC 49619; conditions: Streptococcus pneumoniae, ATCC49619; liquid phase, 37 °C, 24 h; read-out: Minimal Inhibitory Concentration, Broth
From the text: (§1) The following four bacterial standard strains from the American Type Culture Collection (ATCC, Manassas, VA, USA) were used: Haemophilus influenzae ATCC 49247, Staphylococcus aureus ATCC 29213, Streptococcus pneumoniae ATCC 49619, and Streptococcus pyogenes ATCC 19615. Cultivation and assay media (broth/agar) were Mueller–Hinton (MH) complemented by Haemophilus Tested Medium (H. influenzae), MH (S. aureus), and Brain Heart Infusion (S. pneumoniae and S. pyogenes). The pH of the broths was equilibrated to a final value of 7.6 using Trizma base (Sigma-Aldrich, Praha, Czech Republic). […] cultivation media were purchased from Oxoid (Basingstoke, UK).
(§2) Stock cultures of bacterial strains were cultivated in broth medium at 37 °C for 24 h prior to testing. For the preparation of inoculum, the turbidity of the bacterial suspension was adjusted to 0.5 McFarland standard using a Densi-La-Meter II (Lachema, Brno, Czech Republic) to obtain a final concentration of 10^8 CFU/mL.
(§3) The antibacterial potential of volatile plant-derived compounds in the liquid and vapor phases was determined using a newly developed broth macrodilution volatilization method performed in standard 2 mL microtubes with snap caps (Eppendorf, Hamburg, Germany). Initially, each sample of compound was dissolved in DMSO at maximum concentration of 1% and diluted in the appropriate broth medium. […] The concentration of β-thujaplicin started from 1024 µg/mL and from 128 µg/mL for thymohydroquinone and thymoquninone. In the second step, 90 µL of melted agar was pipetted into rims on the caps (Figure 3a) and inoculated with 5 µL of bacterial suspension after agar solidification. Subsequently, the appropriate concentrations of each sample previously prepared in test tubes were pipetted into microtubes in a final volume of 1500 µL. Then, the microtubes were inoculated with 10 µL of bacterial suspension and closed properly (Figure 3b). Microtubes containing inoculated and non-inoculated media were prepared as growth and purity controls simultaneously. After incubation at 37 °C for 24 h, the MICs were evaluated by the visual assessment of bacterial growth after coloring metabolically active bacterial colonies with MTT dye. The respective volumes of 30 and 375 µL of MTT at a concentration of 600 µg/mL were pipetted into the caps and in the microtubes when the interface of color change from yellow to purple (relative to that of colors in control wells) was recorded in broth and agar (Figure 3c). […] The MIC values were determined as the lowest concentrations that inhibited bacterial growth compared with the compound-free control and are expressed in µg/mL. In the case of the vapor phase, the concentration was also expressed in µg/cm^3 as the weight of the volatile agent per volume unit of a microtube. […] The respective susceptibilities of H. influenzae, S. aureus, S. pneumoniae, and S. pyogenes to ampicillin, oxacillin, amoxicillin, and tetracycline were checked as positive antibiotic controls. All tests were performed as three independent experiments, each carried out in triplicate, and the results were presented as median/modal values. According to the widely accepted norm in MIC testing, the mode and median were used for the final value calculation when triplicate endpoints were within the two- and three-dilution ranges, respectively.

[2] = tested on: Haemophilus influenzae ATCC 49247; conditions: ATCC49247, liquid phase, 37 °C, 24 h, read-out: Minimal Inhibitory Concentration, Broth
From the text: as §1, §2, §3

[3] = tested on: Staphylococcus aureus ATCC 29213; conditions: ATCC29213, liquid phase, 37 °C, 24 h, read-out: Minimal Inhibitory Concentration, Broth
From the text: as §1, §2, §3

[4] = tested on: Streptococcus pyogenes ATCC 19615; conditions: Streptococcus pyogenes, ATCC19615; liquid phase, 37 °C, 24 h; read-out: Minimal Inhibitory Concentration, Broth
From the text: as §1, §2, §3

- MIC [1]: 0.25 µg/mL (≈ 0.684 µM)
Structure (SMILES): CC1(C)S[C@@H]2[C@H](NC(=O)[C@H](N)c3ccc(O)cc3)C(=O)N2[C@H]1C(=O)O [amoxicillin, reference compound]

- MIC [2]: 1 µg/mL (≈ 2.86 µM)
Structure (SMILES): CC1(C)S[C@@H]2[C@H](NC(=O)[C@H](N)c3ccccc3)C(=O)N2[C@H]1C(=O)O [ampicillin, reference compound]

Structure (SMILES): Cc1onc(-c2ccccc2)c1C(=O)N[C@@H]1C(=O)N2[C@@H]1SC(C)(C)[C@@H]2C(=O)O [oxacillin, reference compound]
- MIC [3]: 0.5 µg/mL (≈ 1.25 µM)

Structure (SMILES): CN(C)[C@@H]1C(O)=C(C(N)=O)C(=O)[C@@]2(O)C(O)=C3C(=O)c4c(O)cccc4[C@@](C)(O)[C@H]3C[C@@H]12 [tetracycline, reference compound]
- MIC [4]: 0.25 µg/mL (≈ 0.563 µM)
